Experimental data reported in patent US7132422B2, “Sodium channel modulators” (Theravance, Inc., priority 2001, dated 2006).

The molecules below were run on spinal nerve ligation (SNL) rats (assay: In vivo pain model: spinal nerve ligation (SNL), 50% withdrawal threshold with von Frey filaments). Conditions: intraperitoneal dose of approximately 30 mg/kg.
Method: Male Sprague-Dawley rats (120–180 g, Harlan, Indianapolis, Ind.) are pre-screened to determine their baseline 50% withdrawal threshold using a set of von Frey filaments. The 50% withdrawal threshold for mechanical stimulation to the hind paw is determined by the up-down method described by Dixon W. J., Ann.
An abrupt withdrawal of the foot during stimulation or immediately after the removal of stimulus is considered a positive response.
Whenever there is a positive or negative response, the next weaker or stronger filament is applied, respectively. The test is continued until six stimuli after the first change in response has been obtained. […] In the cases where continuous positive or negative responses are observed all the way out to the end of the stimulus spectrum, values of 0.3 g or 15.0 g are assigned, respectively.
After pre-screening, rats which display a 50% withdrawal threshold greater than 8 g are acceptable for surgery. The spinal nerve ligation (SNL) surgery is carried out as follows. Rats are anesthetized with inhaled Isoflurance and the left L5 and L6 spinal nerves are tightly ligated with 6-0 silk thread. Postoperatively, rats are placed under a heat lamp until motor function returns and then single-housed. At 5–7 days post surgery, rats are re-tested to determine their post-surgery 50% withdrawal threshold. Rats which consistently display (2 or more days) a 50% withdrawal threshold less than 4.5 g are considered acceptable for compound investigation.
Compounds are formulated in saline for injection and pH adjusted with dilute sodium hydroxide. Groups sizes are normally 5 or 6 rats. […] At 1, 3, and 6 hours post administration, the 50% withdrawal threshold is determined by an investigator who is blinded to the treatment groups. If at 6 hours, some prolonged activity is present, i.e., 50% withdrawal thresholds greater than 8 g, then later timepoints may be attempted (normally at 12 and 24 hours). Compounds can also be administered orally to determine oral activity.

Row | SMILES | effectiveness for treating pain / activity in the in vivo pain model
1 | Cc1cccc(C)c1OCC(N)COc1c(F)cc(F)cc1F (stereo not drawn) [Compound 11] | some activity
2 | CC(N)(COc1c(F)cc(F)cc1F)COc1c(F)cc(F)cc1F [Compound 6] | not active
3 | Cc1cccc(Cl)c1OCC(C)(N)COc1c(C)cccc1Cl [Compound 5] | some activity
4 | Cc1cccc(C)c1OCC(COc1c(C)cccc1C)NCCc1ccncc1 [Compound 79] | not active
5 | Cc1ccccc1OCC(N)COc1ccccc1C [Compound 8] | not active
6 | Cc1ccccc1OCC(C)(N)COc1ccccc1C [Compound 1] | demonstrated effectiveness for treating pain
